Data from patent US9981037B2, “Combination therapy of beta-glycolipids and antibodies for the treatment of immune-related disorders” (HADASIT MEDICAL RESEARCH SERVICES AND DEVELOPMENT LTD., priority 2008, dated 2018).

Assays:
healthy human volunteers = assay: Clinical and laboratory follow-up, CD3+ counts and HAMA in healthy human volunteers; type: in vivo; settings: oral
Method: * OKT3 (Orthoclone OKT-3) was purchased from Ortho Biotech Inc. (New Jersey, USA). Antibodies to OKT3 were evaluated on day 30 using the Human Anti-Mouse Antibodies (HAMA)-ELISA kit (MEDAC, Hamburg, Germany).
Healthy males (≥18 years) not on therapy for medical or other illnesses were enrolled in accordance with the guidelines of the Hebrew University-Hadassah Institutional Committee for Human Clinical Trials, and the approval of the Israel Ministry of Health Committee for Human Trials. Of 35 potential study subjects screened 18 met inclusion and exclusion criteria and were randomized to one of the treatment groups.
Nine subjects (3/group) were orally administered 0.2 mg, 1.0 mg or 5.0 mg of OKT3 daily for 5 days and immune parameters measured on days 5, 10 and 30 days (FIG. 12). Six subjects (3/group) received 7.5 mg of beta glucosylceramide in combination with 0.2 mg or 1.0 mg of OKT3 and 3 subjects received GC alone. All subjects were treated with 20 mg of Omeprazole (a proton pump inhibitor) during the 5 days of dosing. […]
All patients underwent a full medical history and physical examination, including review of adverse effects on days 1, 5, 10, and 30, along with complete blood counts, differential, electrolytes, liver and kidney function tests, and lipid profile. C-reactive protein and sedimentation rates were also evaluated. […]

[1] = tested on: Peripheral blood lymphocytes; assay: Proliferation of peripheral blood lymphocytes stimulated in vitro with anti-CD3 antibody; type: in vivo, human
Method: Nine subjects (3/group) were orally administered 0.2 mg, 1.0 mg or 5.0 mg of OKT3 daily for 5 days and immune parameters measured on days 5, 10 and 30 days (FIG. 12). Six subjects (3/group) received 7.5 mg of beta glucosylceramide in combination with 0.2 mg or 1.0 mg of OKT3 and 3 subjects received GC alone. All subjects were treated with 20 mg of Omeprazole (a proton pump inhibitor) during the 5 days of dosing. Dosing occurred in the morning before breakfast at the study site following a 8 hours fast. PBMCs were isolated from blood samples using Ficol Hypaque solution. To measure proliferation, 2×10^5 cells per well were cultured in triplicate in RPMI 1640 medium with 5% FBS (Biological Industries, Israel), 100 units/ml penicillin, 100 µg/ml streptomycin, 1% Glutamine, 1% non essential […], 1% sodium pyruvate and β-mercapto-ethanol (Biological Industries, Israel). Cells were stimulated with pre-coated antibodies (in 200 μl PBS/well):μg/well of anti OKT-3 mAb (Ortho Biotech Inc, New Jersey, USA) or 5 μg/ml soluble anti-CD3 mAb (eBioscience, CA, USA) or 2.5 μg/ml anti-CD28 mAb (R&D systems, MN, USA). One set of the above wells were added nothing while 10 μg of GC was added to a similar set for 72 h in culture at 37° C. with 5% CO2. Supernatants were collected for IL-13, IL-17 and IFN-γ. Enzyme-linked immunosorbent assays for these cytokines were performed according to the manufacturer's protocol (R&D Systems, Minneapolis, Minn.). For TGF-β, 2×10^5 cells per well were cultured in serum free media (Biotarget, Biological Industries, Israel). After collecting the supernatants, 1 µCi [^3H]thymidine (Amersham Biosciences, UK) was added to each well, and cells were harvested 18 h later. Proliferation was measured by scintillation counting. Unlike what has been reported for treatment with IV anti-CD3 (which is also given at a dose of 5 mg per day for five days), no decrease in the CD3+ lymphocyte counts or modulation of CD3 from the T cell surface was observed. […] An identical pattern was observed when results were calculated as stimulation indices.

Substance: OKT3: murine monoclonal anti-CD3 antibody (Orthoclone OKT-3, Ortho Biotech)
- CD3+ lymphocyte counts or modulation of CD3 from the T cell surface (healthy human volunteers): no decrease
- anti-OKT3 (HAMA) antibodies (healthy human volunteers; day 30): no subject developed
- subjects with increase in proliferation that peaked at day five ([1]; 0.2 mg oral): one subject
- subjects with increase in proliferation that peaked at day five ([1]; 1.0 mg oral daily for 5 days, three subjects): all three subjects
- subjects with increase in proliferation that peaked at day five ([1]; 5 mg oral): two subjects
